Assay results as given in US20180169019A1, “PROCESS FOR THE PREPARATION OF POROUS MICROPARTICLES” (BAYER PHARMA AKTIENGESELLSCHAFT, priority 2015, published 2018).

Experiment: Solubility in water and organic solvents
Format: physicochemical

- solubility in acetone: slightly soluble
- solubility in ethanol, methanol, ethyl acetate: very slightly soluble
- solubility in water and dichloromethane, acetonitrile: practically insoluble
Structure (SMILES): O=C(O)CCCCN(CCc1ccccc1OCc1ccc(CCc2ccccc2)cc1)Cc1ccc(C(=O)O)cc1 [Cinaciguat, 4-[((4-carboxybutyl)-{2-[(4-phenethylbenzyl)oxy]phenethyl}amino)methyl]benzoic acid]
